Data: US6495525B1, “VLA-4 inhibitor: oMePUPA-V” (Biogen, Inc., priority 1998, dated 2002)

Columns and labels:
[1] = biological target: VLA-4 (Homo sapiens, UniProt P05556+P13612); experiment: CS1 Cell Adhesion Assay, Jurkat cells to CS1/BSA conjugate; assay type: cell-based; set-up: endogenous in cells; host or cells: Jurkat (human T cell line); conditions: in the presence of Mn+2
Experimental: The peptide NH2-cysteine-tyrosine-CS-1 was synthesized and coupled to BSA-SMCC (SMCC is a heterobifunctional crosslinker which reacts with free amino groups on BSA and the sole cysteine of the synthetic peptide) at a CS1/BSA ratio of 10:1. Wells were coated overnight with 100 μL of conjugate diluted to a final concentration of 1 ug/ml. The next day the wells were blocked with BSA in PBS for one hour and then washed three times.
The human T cell line, Jurkat, was labeled with 2 μM BCECF-AM, a fluorescent dye (2′, 7′, bis-(2-carboxyethyl)-5 and -6) carboxy fluorescein acetoxymethyl ester (Molecular Probes Inc., Eugene, Oregon; catalog #B-1150) that is internalized and deesterified thus trapping the dye within live cells. Jurkat cells (1×10^5 cells/well) in buffer containing 1 mM Mn^+2 were added to the coated plates in the presence of three-fold serial dilutions of inhibitor. Each concentration was assayed in duplicate. After 30 minutes at room temperature, the plates were inverted and washed three times or until no cells were adherent to control wells coated with BSA alone. CS1-adherent cells were quantitated in a Cytofluor fluorescent platereader using an excitation wavelength of 485 nm and an emission wavelength of 530 nm.
Cells adhered to CS1/BSA in the absence of compound served as the 0% inhibition control whereas cells adhering to BSA alone served as the 100% inhibition control. IC50's were calculated using Deltagraph software, version 5.

[2] = Bulk / drug substance stability (HPLC); assay type: physicochemical
Experimental: At four weeks, one or two degradation peaks became detectable at 40° C. and 50° C., but the level of each impurity peak was still less than 0.02%.

VLA-4, sequence (P13612 34-1032): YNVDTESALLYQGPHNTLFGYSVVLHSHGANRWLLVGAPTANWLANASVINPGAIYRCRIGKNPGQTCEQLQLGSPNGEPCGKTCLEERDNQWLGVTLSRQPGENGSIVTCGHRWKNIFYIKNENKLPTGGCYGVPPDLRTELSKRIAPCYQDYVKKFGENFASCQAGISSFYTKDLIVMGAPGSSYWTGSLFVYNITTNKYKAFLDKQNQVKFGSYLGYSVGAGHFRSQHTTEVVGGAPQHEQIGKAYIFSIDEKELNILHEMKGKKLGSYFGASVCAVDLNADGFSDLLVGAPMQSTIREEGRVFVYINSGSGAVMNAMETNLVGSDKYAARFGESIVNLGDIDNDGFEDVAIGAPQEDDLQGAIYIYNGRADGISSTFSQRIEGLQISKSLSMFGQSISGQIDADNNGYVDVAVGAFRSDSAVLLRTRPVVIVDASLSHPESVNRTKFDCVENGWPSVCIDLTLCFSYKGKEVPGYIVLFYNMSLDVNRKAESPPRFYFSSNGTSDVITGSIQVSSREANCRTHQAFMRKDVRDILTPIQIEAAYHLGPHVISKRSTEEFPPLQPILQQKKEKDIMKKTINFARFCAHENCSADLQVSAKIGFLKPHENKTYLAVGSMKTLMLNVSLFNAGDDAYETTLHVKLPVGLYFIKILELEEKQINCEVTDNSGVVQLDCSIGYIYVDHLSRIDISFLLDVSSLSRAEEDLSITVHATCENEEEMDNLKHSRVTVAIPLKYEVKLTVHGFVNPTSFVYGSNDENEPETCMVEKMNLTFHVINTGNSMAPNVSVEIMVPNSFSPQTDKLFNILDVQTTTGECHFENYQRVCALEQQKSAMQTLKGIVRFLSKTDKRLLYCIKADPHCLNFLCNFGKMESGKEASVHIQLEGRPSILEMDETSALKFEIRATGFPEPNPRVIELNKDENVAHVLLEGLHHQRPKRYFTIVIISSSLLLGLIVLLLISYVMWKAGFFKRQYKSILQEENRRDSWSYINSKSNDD
VLA-4, sequence (P05556 21-798): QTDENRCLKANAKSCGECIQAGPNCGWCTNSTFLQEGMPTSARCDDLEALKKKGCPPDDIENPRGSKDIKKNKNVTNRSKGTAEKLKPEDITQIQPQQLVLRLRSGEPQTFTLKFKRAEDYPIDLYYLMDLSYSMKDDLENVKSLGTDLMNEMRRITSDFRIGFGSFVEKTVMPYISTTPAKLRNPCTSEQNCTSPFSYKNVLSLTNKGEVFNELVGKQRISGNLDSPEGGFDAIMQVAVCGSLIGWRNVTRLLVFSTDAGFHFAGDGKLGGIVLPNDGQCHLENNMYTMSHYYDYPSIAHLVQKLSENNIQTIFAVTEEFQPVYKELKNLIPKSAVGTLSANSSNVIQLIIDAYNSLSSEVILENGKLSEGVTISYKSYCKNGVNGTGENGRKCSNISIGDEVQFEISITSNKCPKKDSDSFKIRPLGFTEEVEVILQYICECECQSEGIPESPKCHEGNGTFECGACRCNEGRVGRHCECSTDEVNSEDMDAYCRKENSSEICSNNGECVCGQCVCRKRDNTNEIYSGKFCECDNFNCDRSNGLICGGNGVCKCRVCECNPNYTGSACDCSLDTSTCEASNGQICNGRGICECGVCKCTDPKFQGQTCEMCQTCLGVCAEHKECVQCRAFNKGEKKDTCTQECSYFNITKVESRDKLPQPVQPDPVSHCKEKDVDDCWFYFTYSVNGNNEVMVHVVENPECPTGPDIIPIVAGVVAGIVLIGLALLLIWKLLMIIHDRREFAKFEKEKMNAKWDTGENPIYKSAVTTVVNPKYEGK

| SMILES | blocking of Jurkat cell adhesion to CS1 (in words) [1] | level of each impurity (degradation) peak ([2]; four weeks, 40° C. and 50° C.) | degradation on storage (in words) ([2]; two weeks, 40° C. closed vial, 50° C. closed vial, 25° C., RH 60%, 40° C., RH 75%) |
| --- | --- | --- | --- |
| O=C(O)CN(CCN(CC(=O)O)CC(=O)O)CC(=O)O [EDTA, reference compound] | blocked completely |  |  |
| Cc1ccccc1NC(=O)Nc1ccc(CC(=O)N2CCC[C@@H]2C(=O)NC(C)CC(=O)O)cc1 (stereo partly drawn) [oMePUPA-V] |  | less than 0.02% | No degradation |
